The target in this assay is BRD4 (Homo sapiens, UniProt O60885). Description: Time resolved fluorescence resonance energy transfer (TR-FRET) binding assay, bromodomain BRD4. To be noted: one of the FRET assays described; read-out: FRET BRD4 IC50. Background: TR-FRET usually uses a lanthanide donor and a delayed reading to cut background.
Turning to `[2H]C([2H])([2H])c1nnn(C)c1-c1cnc2c3c(OC)ncc(S(C)(=O)=O)c3n(C(c3c(F)cc(F)cc3F)C3CCOCC3)c2c1` (single isomer, unassigned) [Example 83, 10-Methanesulfonyl-13-methoxy-5-[4-(^2H3)methyl-1-methyl-1H-1,2,3-triazol-5-yl]-8-[oxan-4-yl(2,4,6-trifluorophenyl)methyl]-3,8,12-triazatricyclo[7.4.0.0^2,^7]trideca-1(13),2(7),3,5,9,11-hexaene], the IC50 (commonly the concentration that inhibits the measured activity by half) was < 1 nM.

For the compound `[2H]C([2H])([2H])c1nnn(C)c1-c1cnc2c3c(OC)ncc(S(C)(=O)=O)c3n([C@H](c3ccccc3)C3CCOCC3)c2c1` [Example 47, 10-Methanesulfonyl-13-methoxy-5-[4-(^2H3)methyl-1-methyl-1H-1,2,3-triazol-5-yl]-8-[(S)-oxan-4-yl(phenyl)methyl]-3,8,12-triazatricyclo[7.4.0.0^2,^7]trideca-1(13),2(7),3,5,9,11-hexaene], the half-inhibitory concentration (IC50) is < 1 nM.

With `COc1nccc2c3ncc(-c4c(C)nnn4C)cc3n(C(c3c(F)cc(F)cc3F)C3CCOCC3)c12` (racemic) [Example 24, 5-(Dimethyl-1H-1,2,3-triazol-5-yl)-10-methoxy-8-[oxan-4-yl(2,4,6-trifluorophenyl)methyl]-3,8,11-triazatricyclo[7.4.0.0^2,^7]trideca-1(13),2(7),3,5,9,11-hexaene], the 50% inhibitory concentration (IC50) was < 10 nM.

For the compound `Cc1nnn(C)c1-c1cnc2c3ccc(N4CCC(C(=O)N(C)C)CC4)nc3n([C@H](c3ccccc3F)C3CCOCC3)c2c1` [Example 271, 1-[5-(Dimethyl-1H-1,2,3-triazol-5-yl)-8-[(S)-(2-fluorophenyl)(oxan-4-yl)methyl]-3,8,10-triazatricyclo[7.4.0.0^2,^7]trideca-1(13),2(7),3,5,9,11-hexaen-11-yl]-N,N-dimethylpiperidine-4-carboxamide], the IC50 is < 10 nM.

For `[2H]C([2H])([2H])c1nnn(C)c1-c1cnc2c3c(OC)ncc(S(C)(=O)=O)c3n(C(c3ncccc3F)C3CCOCC3)c2c1` (stereo not drawn) [Example 64, 8-[(3-Fluoropyridin-2-yl)(oxan-4-yl)methyl]-10-methanesulfonyl-13-methoxy-5-[4-(^2H3)methyl-1-methyl-1H-1,2,3-triazol-5-yl]-3,8,12-triazatricyclo[7.4.0.0^2,^7]trideca-1(13),2(7),3,5,9,11-hexaene], the IC50 was < 1 nM.

For the compound `Cc1nnn(C)c1-c1cnc2c3c(=O)[nH]c(Cl)cc3n(C(c3ncccc3F)C3CCOCC3)c2c1` (stereo not drawn) [Example 307, 11-Chloro-8-[(3-fluoropyridin-2-yl)(oxan-4-yl)methyl]-5-[4-(^2H3)methyl-1-methyl-1H-1,2,3-triazol-5-yl]-3,8,12-triazatricyclo[7.4.0.0^2,^7]trideca-1(9),2(7),3,5,10-pentaen-13-one], the IC50 was < 10 nM.

For the compound `[2H]C([2H])([2H])c1nnn(C)c1-c1cnc2c3cc(C(C)(C)O)cnc3n([C@H](c3ncccc3F)C3CCOCC3)c2c1` [Example 352, 2-{8-[(S)-(3-Fluoropyridin-2-yl)(oxan-4-yl)methyl]-5-[4-(^2H3)methyl-1-methyl-1H-1,2,3-triazol-5-yl]-3,8,10-triazatricyclo[7.4.0.0^2,^7]trideca-1(13),2(7),3,5,9,11-hexaen-12-yl}propan-2-ol], the IC50 was < 10 nM.

In the case of `Cc1cccnc1C(C1CCOCC1)n1c2cc(-c3c(C)nnn3C)ncc2c2ncc(C(C)(C)O)cc21` (single isomer, unassigned) [Example 374], the 50% inhibitory concentration (IC50) is < 10 nM.

On to `Cc1nnn(C)c1-c1cnc2c3ccc(N4CC5CC4CS5(=O)=O)nc3n([C@H](c3ccccc3)C3CCOCC3)c2c1` (stereo partly drawn) [Example 214, 5-[5-(Dimethyl-1H-1,2,3-triazol-5-yl)-8-[(S)-oxan-4-yl(phenyl)methyl]-3,8,10-triazatricyclo[7.4.0.0^2,^7]trideca-1(9),2(7),3,5,10,12-hexaen-11-yl]-2λ^6-thia-5-azabicyclo[2.2.1]heptane-2,2-dione], for which the 50% inhibitory concentration (IC50) is < 1 nM.

Regarding `COc1ncc(S(C)(=O)=O)c2c1c1ncc(-c3c(C)nnn3C)cc1n2[C@H](c1ccc(F)cc1)C1CCOCC1` [Example 52, 5-(Dimethyl-1H-1,2,3-triazol-5-yl)-8-[(S)-(4-fluorophenyl)(oxan-4-yl)methyl]-10-methanesulfonyl-13-methoxy-3,8,12-triazatricyclo[7.4.0.0^2,^7]trideca-1(13),2(7),3,5,9,11-hexaene], the IC50 was < 1 nM.

Take `[2H]C([2H])([2H])c1nnn(C)c1-c1cnc2c3c(Cl)ncc(F)c3n([C@H](c3ccccc3)C3CCOCC3)c2c1` [Example 280, 13-Chloro-10-fluoro-5-[4-(^2H3)methyl-1-methyl-1H-1,2,3-triazol-5-yl]-8-[(S)-oxan-4-yl(phenyl)methyl]-3,8,12-triazatricyclo[7.4.0.0^2,^7]trideca-1(13),2(7),3,5,9,11-hexaene]: the IC50 was < 10 nM.

Regarding `Cc1nnn(C)c1-c1cnc2c3ccc(C(C)O)nc3n([C@H](c3ccccc3)C3CCOCC3)c2c1` (stereo partly drawn) [Example 173, 1-[5-(Dimethyl-1H-1,2,3-triazol-5-yl)-8-[(S)-oxan-4-yl(phenyl)methyl]-3,8,10-triazatricyclo[7.4.0.0^2,^7]trideca-1(9),2(7),3,5,10,12-hexaen-11-yl]ethan-1-ol], the half-maximal inhibitory concentration (IC50) was < 10 nM.

As to `COc1nc(Cl)cc2c1c1ncc(-c3c(C)nnn3C)cc1n2C(c1ncccc1O)C1CCOCC1` (stereo not drawn) [Example 306, 2-({11-Chloro-13-methoxy-5-[4-(^2H3)methyl-1-methyl-1H-1,2,3-triazol-5-yl]-3,8,12-triazatricyclo[7.4.0.0^2,^7]trideca-1(9),2(7),3,5,10,12-hexaen-8-yl}(oxan-4-yl)methyl)pyridin-3-ol], the half-maximal inhibitory concentration (IC50) was < 10 nM.

Take `Cc1nnn(C)c1-c1cnc2c3ccc(N4CCC(C)(O)CC4)nc3n([C@H](c3ccccc3)C3CCOCC3)c2c1` [Example 180, 1-[5-(Dimethyl-1H-1,2,3-triazol-5-yl)-8-[(S)-oxan-4-yl(phenyl)methyl]-3,8,10-triazatricyclo[7.4.0.0^2,^7]trideca-1(9),2(7),3,5,10,12-hexaen-11-yl]-4-methylpiperidin-4-ol]: the concentration for half-maximal inhibition (IC50) was < 1 nM.

As to `Cc1nnn(C)c1-c1cnc2c3ccc(N4CCS(=O)(=O)C(C)C4)nc3n([C@H](c3ccccc3)C3CCOCC3)c2c1` (single isomer, unassigned; diastereomer b) [Example 218], the 50% inhibitory concentration (IC50) is < 1 nM.

`CCOP(=O)(CCNc1ccc2c3ncc(-c4c(C)nnn4C)cc3n([C@H](c3ccccc3)C3CCOCC3)c2n1)OCC` [Example 215, Diethyl (2-{[5-(dimethyl-1H-1,2,3-triazol-5-yl)-8-[(S)-oxan-4-yl(phenyl)methyl]-3,8,10-triazatricyclo[7.4.0.0^2,^7]trideca-1(9),2(7),3,5,10,12-hexaen-11-yl]amino}ethyl)phosphonate]: the IC50 is < 10 nM.

Consider `[2H]C([2H])([2H])Oc1ncc(S(C)(=O)=O)c2c1c1ncc(-c3c(C)noc3C([2H])([2H])[2H])cc1n2[C@H](c1ccc(F)cc1)C1CCOCC1` [Example 55, 8-[(S)-(4-Fluorophenyl)(oxan-4-yl)methyl]-10-methanesulfonyl-13-(^2H3)methoxy-5-[5-(^2H3)methyl-3-methyl-1,2-oxazol-4-yl]-3,8,12-triazatricyclo[7.4.0.0^2,^7]trideca-1(13),2(7),3,5,9,11-hexaene], for which the IC50 is < 1 nM.

With `[2H]C([2H])([2H])C(O)(c1cc2c(cn1)c1ncc(-c3c(C)noc3C)cc1n2[C@H](c1ccc(F)cc1)C1CCOCC1)C([2H])([2H])[2H]` [Example 224, 2-[5-(Dimethyl-1,2-oxazol-4-yl)-8-[(S)-(4-fluorophenyl)(oxan-4-yl)methyl]-3,8,12-triazatricyclo[7.4.0.0^2,^7]trideca-1(13),2(7),3,5,9,11-hexaen-11-yl](^2H6)propan-2-ol], the IC50 is < 10 nM.

As for `Cc1nnn(C)c1-c1cnc2c3cnc(C#N)nc3n([C@H](c3ccccc3)C3CCOCC3)c2c1` [Example 143, 5-(Dimethyl-1H-1,2,3-triazol-5-yl)-8-[(S)-oxan-4-yl(phenyl)methyl]-3,8,10,12-tetraazatricyclo[7.4.0.0^2,^7]trideca-1(9),2(7),3,5,10,12-hexaene-11-carbonitrile], the half-inhibitory concentration (IC50) was < 1500 nM.

For `CCOc1ncc(Cl)c2c1c1ncc(-c3c(C)nnn3C)cc1n2[C@H](c1ccccc1)C1CCOCC1` [Example 43, 10-Chloro-5-(dimethyl-1H-1,2,3-triazol-5-yl)-13-ethoxy-8-[(S)-oxan-4-yl(phenyl)methyl]-3,8,12-triazatricyclo[7.4.0.0^2,^7]trideca-1(13),2(7),3,5,9,11-hexaene], the IC50 is < 1 nM.

Regarding `[2H]C([2H])([2H])c1nnn(C)c1-c1cnc2c3c(OC)nc(C(C)(C)O)cc3n(C(c3ccccc3)C3CCC(F)(F)CC3)c2c1` (stereo not drawn) [Example 345, 2-{8-[(4,4-Difluorocyclohexyl)(phenyl)methyl]-13-methoxy-5-[4-(^2H3)methyl-1-methyl-1H-1,2,3-triazol-5-yl]-3,8,12-triazatricyclo[7.4.0.0^2,^7]trideca-1(13),2(7),3,5,9,11-hexaen-11-yl}propan-2-ol], the IC50 is < 1 nM.

For the compound `[2H]C([2H])([2H])c1nnn(C)c1-c1cnc2c3c(OC)nc(C(C)(C)O)cc3n([C@H](c3ncccc3F)C3CCOCC3)c2c1` [Example 309, 2-{8-[(S)-(3-Fluoropyridin-2-yl)(oxan-4-yl)methyl]-13-methoxy-5-[4-(^2H3)methyl-1-methyl-1H-1,2,3-triazol-5-yl]-3,8,12-triazatricyclo[7.4.0.0^2,^7]trideca-1(9),2(7),3,5,10,12-hexaen-11-yl}propan-2-ol], the half-maximal inhibitory concentration (IC50) is < 10 nM.

Take `Cc1nnn(C)c1-c1cnc2c3ccc(N4CCC(S(C)(=O)=O)CC4)nc3n([C@H](c3ccccc3)C3CCOCC3)c2c1` [Example 192, 5-(Dimethyl-1H-1,2,3-triazol-5-yl)-11-(4-methanesulfonylpiperidin-1-yl)-8-[(S)-oxan-4-yl(phenyl)methyl]-3,8,10-triazatricyclo[7.4.0.0^2,^7]trideca-1(9),2(7),3,5,10,12-hexaene]: the IC50 is < 1 nM.

Turning to `COc1ccc2c3ncc(-c4c(C)nnn4C)cc3n([C@H](c3ccccc3)C3CCOCC3)c2n1` [Example 12, 5-(Dimethyl-1H-1,2,3-triazol-5-yl)-11-methoxy-8-[(S)-oxan-4-yl(phenyl)methyl]-3,8,10-triazatricyclo[7.4.0.0^2,^7]trideca-1(13),2(7),3,5,9,11-hexaene], the IC50 is < 10 nM.

The values above are taken from patent US9725449B2, “Tricyclic compounds as anticancer agents” (BRISTOL-MYERS SQUIBB COMPANY, priority 2015, dated 2017).
